Assay results taken from patent publication US12084434B2 (Scorpion Therapeutics, Inc., priority 2021, dated 2024).
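Also: assay medium was RPMI with 10% FBS and 0.2 units/ml bovine insulin, without phenol red.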

These compounds were tested on T47D pAKT (S473), PI3Kα H1047R mutation present (assay: HTRF pAKT-T47D). Conditions: Homo sapiens, T47D, 1 h, read-out: T47D pAKT IC50 (nM), T47D.1 cells, pAKT (S473) HTRF, 1 hour.
For `Cc1c([C@@H](NC(=O)Nc2cnc(N)nc2)C2(C)CC2)oc2ccc(F)cc12` [Compound 84, (S)-1-(2-aminopyrimidin-5-yl)-3-((5-fluoro-3-methylbenzofuran-2-yl)(1-methylcyclopropyl)methyl)urea], the IC50 was < 1000 nM.
`Cc1c([C@@H](NC(=O)Nc2cnc(N3CC(O)C3)nc2)C(F)(F)F)oc2ccc(F)cc12` [Compound 89, (R)-1-(2-(3-hydroxyazetidin-1-yl)pyrimidin-5-yl)-3-(2,2,2-trifluoro-1-(5-fluoro-3-methylbenzofuran-2-yl)ethyl)urea] was tested, and the IC50 was < 1000 nM.
`Cc1c([C@@H](NC(=O)Nc2cnc(N3CCNC(=O)C3)nc2)C(C)C)oc2ccc(F)cc12` [Compound 139] was tested, and the IC50 was < 1000 nM.
With `Cc1c([C@@H](NC(=O)Nc2cnc(C(=O)N(C)C)s2)C(C)C)oc2ccc(F)cc12` [Compound 121, (S)-5-(3-(1-(5-fluoro-3-methylbenzofuran-2-yl)-2-methylpropyl)ureido)-N,N-dimethylthiazole-2-carboxamide] the IC50 was 1000 to 5000 nM.
`Cc1c([C@@H](NC(=O)Nc2cnc(OCCO)nc2)C(C)C)oc2ccc(F)cc12` [Compound 151, (S)-1-(1-(5-fluoro-3-methylbenzofuran-2-yl)-2-methylpropyl)-3-(2-(2-hydroxyethoxy)pyrimidin-5-yl)urea] was tested, and the IC50 was < 1000 nM.
For `Cc1c(C(NC(=O)Nc2cnc(N3CC(F)C3)nc2)C(F)(F)F)oc2c(F)cc(F)cc12` (single isomer, unassigned) [Compound 225, 1-(1-(5,7-difluoro-3-methylbenzofuran-2-yl)-2,2,2-trifluoroethyl)-3-(2-(3-fluoroazetidin-1-yl)pyrimidin-5-yl)urea], the IC50 was 1000 to 5000 nM.
With `Cc1c([C@@H](NC(=O)Nc2cnc(N3CC4(COC4)C3)nc2)C(C)C)oc2ccc(F)cc12` [Compound 135] the IC50 was < 1000 nM.
With `Cc1c([C@H](NC(=O)Nc2cnc(N3CC[C@@H](O)C3)nc2)C(F)(F)F)oc2c(F)cc(F)cc12` [Compound 207] the IC50 was > 5000 nM.
In the case of `Cc1c([C@@H](NC(=O)Nc2ccc3[nH]ncc3c2)C(F)(F)F)oc2c(F)cc(F)cc12` [Compound 194, 3-[(1R)-1-(5,7-difluoro-3-methyl-1-benzofuran-2-yl)-2,2,2-trifluoroethyl]-1-(1H-indazol-5-yl)urea], the IC50 is reported as < 1000 nM.
`Cc1c([C@@H](NC(=O)Nc2cnc(N)nc2)C2(F)CC2)oc2ccc(F)cc12` [Compound 81, (R)-1-(2-aminopyrimidin-5-yl)-3-((5-fluoro-3-methylbenzofuran-2-yl)(1-fluorocyclopropyl)methyl)urea] was tested, and the IC50 was < 1000 nM.
In the case of `Cc1c([C@@H](NC(=O)Nc2cccc(N3CCC3=O)c2)C(C)C)oc2ccc(F)cc12` [Compound 105], the IC50 is reported as 1000 to 5000 nM.
In the case of `Cc1c([C@@H](NC(=O)Nc2cnc(N3CC4(CCO4)C3)nc2)C(C)C)oc2ccc(F)cc12` [Compound 164, 3-[(1S)-1-(5-fluoro-3-methyl-1-benzofuran-2-yl)-2-methylpropyl]-1-(2-{1-oxa-6-azaspiro[3.3]heptan-6-yl}pyrimidin-5-yl)urea], the IC50 is reported as < 1000 nM.
`Cc1c([C@@H](NC(=O)Nc2cnc3nccn3c2)C(C)C)oc2ccc(F)cc12` [Compound 160, (S)-1-(1-(5-fluoro-3-methylbenzofuran-2-yl)-2-methylpropyl)-3-(imidazo[1,2-a]pyrimidin-6-yl)urea] was tested, and the IC50 was < 1000 nM.
With `Cc1c([C@@H](NC(=O)Nc2cnc(N3CC(O)C3)nc2)C(F)(F)F)oc2c(F)cc(F)cc12` (single isomer, unassigned) [Compound 91] the IC50 was < 1000 nM.
`COc1ncc(NC(=O)N[C@H](c2oc3ccc(F)cc3c2C)C(C)C)cn1` [Compound 150, (S)-1-(1-(5-fluoro-3-methylbenzofuran-2-yl)-2-methylpropyl)-3-(2-methoxypyrimidin-5-yl)urea] was tested, and the IC50 was < 1000 nM.
In the case of `Cc1c([C@H](NC(=O)Nc2cnc(N3CC(C(N)=O)C3)nc2)C(F)(F)F)oc2c(F)cc(F)cc12` [Compound 212], the IC50 is reported as > 5000 nM.
With `Cc1c([C@@H](NC(=O)Nc2csc(C(N)=O)c2)C(C)C)oc2ccc(F)cc12` [Compound 123, (S)-4-(3-(1-(5-fluoro-3-methylbenzofuran-2-yl)-2-methylpropyl)ureido)thiophene-2-carboxamide] the IC50 was 1000 to 5000 nM.
For `Cc1c([C@@H](NC(=O)Nc2cnc(N3CCOCC3)nc2)C(C)C)oc2ccc(F)cc12` [Compound 107], the IC50 was < 1000 nM.
For `Cc1c([C@@H](NC(=O)Nc2cnc(N3CCC(C)(O)CC3)nc2)C(C)C)oc2ccc(F)cc12` [Compound 141], the IC50 was < 1000 nM.
For `Cc1c([C@H](NC(=O)Nc2cnc(N3CC(C)(O)C3)nc2)C(F)(F)F)oc2c(F)cc(F)cc12` (single isomer, unassigned) [Compound 93], the IC50 was < 1000 nM.

Same assay, conditions: read-out: T47D pAKT IC50; T47D.1 cells, pAKT (S473) HTRF, 1 hour
For `Cc1c(C(NC(=O)Nc2cnc(N)nc2)C(F)(F)F)oc2c(C3CC3)cc(F)cc12` (single isomer, unassigned) [Compound 217, 1-(2-aminopyrimidin-5-yl)-3-[1-(7-cyclopropyl-5-fluoro-3-methyl-1-benzofuran-2-yl)-2,2,2-trifluoroethyl]urea], the IC50 was > 5000 nM.
`Cc1c(C(NC(=O)Nc2cnc(N)nc2)C(F)(F)F)oc2c(Br)cc(F)cc12` (single isomer, unassigned) [Compound 216, 1-(2-aminopyrimidin-5-yl)-3-[1-(7-bromo-5-fluoro-3-methyl-1-benzofuran-2-yl)-2,2,2-trifluoroethyl]urea] was tested, and the IC50 was < 1000 nM.
`Cc1c(C(NC(=O)Nc2ccc(N)nc2)C(F)(F)F)oc2c(F)cc(F)cc12` (centres unmarked) [Compound 182] was tested, and the IC50 was < 1000 nM.
In the case of `Cc1c(C(NC(=O)Nc2cnc(N)nc2)C(F)(F)F)oc2c(F)cc(Cl)cc12` (racemic) [Compound 156, 1-(2-aminopyrimidin-5-yl)-3-[1-(5-chloro-7-fluoro-3-methyl-1-benzofuran-2-yl)-2,2,2-trifluoroethyl]urea], the IC50 is reported as < 1000 nM.
In the case of `Cc1c(C(NC(=O)Nc2cnc(N)nc2)C(F)(F)F)oc2c(C)cc(F)cc12` (single isomer, unassigned) [Compound 214, 1-(2-aminopyrimidin-5-yl)-3-[2,2,2-trifluoro-1-(5-fluoro-3,7-dimethyl-1-benzofuran-2-yl)ethyl]urea], the IC50 is reported as < 1000 nM.
`Cc1c(C(NC(=O)Nc2cnc(N3C[C@@H](O)[C@@H]3C)nc2)C(F)(F)F)oc2c(F)cc(F)cc12` (some centres unmarked) [Compound 176] was tested, and the IC50 was > 5000 nM.
In the case of `Cc1c(C(NC(=O)Nc2cnc(N[C@@H](C)CO)nc2)C(F)(F)F)oc2c(F)cc(F)cc12` (single isomer, unassigned) [Compound 195], the IC50 is reported as > 5000 nM.
`Cc1c(C(NC(=O)Nc2cnc(N3CC(C)(O)C3)nc2)C(F)(F)F)oc2c(Cl)cc(F)cc12` (single isomer, unassigned) [Compound 201, 1-(1-(7-chloro-5-fluoro-3-methylbenzofuran-2-yl)-2,2,2-trifluoroethyl)-3-(2-(3-hydroxy-3-methylazetidin-1-yl)pyrimidin-5-yl)urea] was tested, and the IC50 was > 5000 nM.
For `Cc1c(C(NC(=O)Nc2cnc(N)nc2)C(F)(F)F)oc2c(F)cc(Cl)cc12` (racemic) [Compound 155, 1-(2-aminopyrimidin-5-yl)-3-[1-(5-chloro-7-fluoro-3-methyl-1-benzofuran-2-yl)-2,2,2-trifluoroethyl]urea], the IC50 was > 5000 nM.
`Cc1c(C(NC(=O)Nc2cnc(N3CC(S(C)(=O)=O)C3)nc2)C(F)(F)F)oc2c(F)cc(F)cc12` (racemic) [Compound 186, 1-(1-(5,7-difluoro-3-methylbenzofuran-2-yl)-2,2,2-trifluoroethyl)-3-(2-(3-(methylsulfonyl)azetidin-1-yl)pyrimidin-5-yl)urea] was tested, and the IC50 was < 1000 nM.
For `CCc1c(C(NC(=O)Nc2cnc(N)nc2)C(F)(F)F)oc2ccc(F)cc12` (racemic) [Compound 133, 1-(2-aminopyrimidin-5-yl)-3-[1-(3-ethyl-5-fluoro-1-benzofuran-2-yl)-2,2,2-trifluoroethyl]urea], the IC50 was > 5000 nM.
In the case of `Cc1c(C(NC(=O)Nc2cnc(N3CC(O)C3)nc2)C(F)(F)F)oc2ccc(Cl)cc12` (racemic) [Compound 154, 3-[1-(5-chloro-3-methyl-1-benzofuran-2-yl)-2,2,2-trifluoroethyl]-1-[2-(3-hydroxyazetidin-1-yl)pyrimidin-5-yl]urea], the IC50 is reported as < 1000 nM.
In the case of `Cc1c(C(NC(=O)Nc2cnc(N3CCNC(=O)C3)nc2)C(F)(F)F)oc2c(F)cc(F)cc12` (single isomer, unassigned) [Compound 190, 1-(1-(5,7-difluoro-3-methylbenzofuran-2-yl)-2,2,2-trifluoroethyl)-3-(2-(3-oxopiperazin-1-yl)pyrimidin-5-yl)urea], the IC50 is reported as > 5000 nM.
Compound `Cc1c(C(NC(=O)Nc2cnc(N3CCC3)nc2)C(F)(F)F)oc2c(F)cc(F)cc12` (single isomer, unassigned) [Compound 224, 1-(2-(azetidin-1-yl)pyrimidin-5-yl)-3-(1-(5,7-difluoro-3-methylbenzofuran-2-yl)-2,2,2-trifluoroethyl)urea] has an IC50 of 1000 to 5000 nM.
In the case of `Cc1c(C(NC(=O)Nc2cnc(N3CC(C)(O)C3)nc2)C(F)(F)F)oc2c(Cl)cc(F)cc12` (single isomer, unassigned) [Compound 202, 1-(1-(7-chloro-5-fluoro-3-methylbenzofuran-2-yl)-2,2,2-trifluoroethyl)-3-(2-(3-hydroxy-3-methylazetidin-1-yl)pyrimidin-5-yl)urea], the IC50 is reported as < 1000 nM.
In the case of `Cc1c(C(NC(=O)Nc2cnc(N3CC(O)C3)nc2)C(F)(F)F)oc2c(F)cc(Cl)cc12` (racemic) [Compound 158, 3-[1-(5-chloro-7-fluoro-3-methyl-1-benzofuran-2-yl)-2,2,2-trifluoroethyl]-1-[2-(3-hydroxyazetidin-1-yl)pyrimidin-5-yl]urea], the IC50 is reported as > 5000 nM.
For `Cc1c(C(NC(=O)Nc2cnc(N3CC(O)C3)nc2)C(F)(F)F)oc2c(F)cc(Cl)cc12` (racemic) [Compound 157, 3-[1-(5-chloro-7-fluoro-3-methyl-1-benzofuran-2-yl)-2,2,2-trifluoroethyl]-1-[2-(3-hydroxyazetidin-1-yl)pyrimidin-5-yl]urea], the IC50 was < 1000 nM.
For `Cc1c(C(NC(=O)Nc2cnc(N3CC(C(=O)O)C3)nc2)C(F)(F)F)oc2c(F)cc(F)cc12` (single isomer, unassigned) [Compound 198, 1-[5-({[1-(5,7-difluoro-3-methyl-1-benzofuran-2-yl)-2,2,2-trifluoroethyl]carbamoyl}amino)pyrimidin-2-yl]azetidine-3-carboxylic acid], the IC50 was > 5000 nM.
